This passage reports IC50 results from patent US11981658B2, “Substituted aminopyridine compounds as EGFR inhibitors” (YUHAN CORPORATION, priority 2021, dated 2024).

The target in assay [1] is EGFR Del19/T790M/C797S (Homo sapiens, UniProt P00533, C797S/DEL746-750/T790M). Put plainly: Biochemical EGFR kinase inhibition assay (Lance Ultra TR-FRET), triple mutant del19/T790M/C797S. The procedure, abridged: (§1)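 In this biochemical assay, phosphorylation after a one-hour room-temperature reaction was detected with europium-labelled anti-phosphopeptide antibody at 2 nM final concentration.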

Assay [2] concerns the target EGFR Del19/C797S (Homo sapiens, UniProt P00533, C797S/DEL746-750). Put plainly: Biochemical EGFR kinase inhibition assay (Lance Ultra TR-FRET), double mutant del19/C797S. The procedure, abridged: as §1
For orientation: Time-resolved FRET reads energy transfer from a long-lived donor to a nearby acceptor.

Assay [3] concerns the target EGFR wildtype (WT) (Homo sapiens, UniProt P00533). Put plainly: Biochemical EGFR kinase inhibition assay (Lance Ultra TR-FRET), wildtype. In outline: as §1
Assay [4] addresses EGFR L858R/C797S (Homo sapiens, UniProt P00533, C797S/L858R). Put plainly: Biochemical EGFR kinase inhibition assay (Lance Ultra TR-FRET), double mutant L858R/C797S. The procedure, abridged:
as §1

Assay [5] deals with EGFR L858R/T790M/C797S (Homo sapiens, UniProt P00533, C797S/L858R/T790M). Put plainly: Biochemical EGFR kinase inhibition assay (Lance Ultra TR-FRET), triple mutant L858R/T790M/C797S. In outline: as §1
Chain of EGFR L858R/T790M/C797S (P00533 25-1210 T790M/C797S/L858R): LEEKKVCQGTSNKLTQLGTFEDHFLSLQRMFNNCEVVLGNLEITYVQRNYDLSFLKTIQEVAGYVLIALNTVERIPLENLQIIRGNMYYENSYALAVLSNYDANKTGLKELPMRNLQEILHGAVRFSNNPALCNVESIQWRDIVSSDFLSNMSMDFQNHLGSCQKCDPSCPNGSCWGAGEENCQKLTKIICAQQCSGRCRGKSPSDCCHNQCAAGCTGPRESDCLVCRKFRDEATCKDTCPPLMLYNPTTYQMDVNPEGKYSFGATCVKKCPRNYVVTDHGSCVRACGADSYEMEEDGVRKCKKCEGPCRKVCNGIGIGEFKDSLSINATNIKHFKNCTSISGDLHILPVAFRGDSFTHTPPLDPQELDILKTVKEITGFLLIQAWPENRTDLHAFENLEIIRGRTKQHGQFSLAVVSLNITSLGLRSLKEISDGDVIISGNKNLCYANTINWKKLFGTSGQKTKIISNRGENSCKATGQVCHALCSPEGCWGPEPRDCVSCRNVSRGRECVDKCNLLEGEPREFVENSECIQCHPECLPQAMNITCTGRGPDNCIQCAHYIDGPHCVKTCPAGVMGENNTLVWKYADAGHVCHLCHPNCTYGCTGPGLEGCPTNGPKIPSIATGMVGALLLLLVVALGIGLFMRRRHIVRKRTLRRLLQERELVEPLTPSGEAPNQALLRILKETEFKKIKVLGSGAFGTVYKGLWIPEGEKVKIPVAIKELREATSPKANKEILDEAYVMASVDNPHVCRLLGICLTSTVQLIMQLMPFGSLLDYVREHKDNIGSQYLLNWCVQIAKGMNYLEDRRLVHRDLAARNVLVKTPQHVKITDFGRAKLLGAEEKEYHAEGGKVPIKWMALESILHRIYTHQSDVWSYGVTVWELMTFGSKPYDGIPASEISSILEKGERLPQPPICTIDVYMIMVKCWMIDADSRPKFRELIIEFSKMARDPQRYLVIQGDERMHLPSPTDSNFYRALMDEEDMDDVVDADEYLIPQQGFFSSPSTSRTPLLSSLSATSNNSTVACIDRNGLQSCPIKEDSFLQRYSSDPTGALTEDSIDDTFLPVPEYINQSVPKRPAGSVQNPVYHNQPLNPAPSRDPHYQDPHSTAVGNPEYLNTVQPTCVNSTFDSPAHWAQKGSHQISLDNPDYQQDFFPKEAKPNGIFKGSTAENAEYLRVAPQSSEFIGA
Where [6] appears, read: IC50 Del19/T790M/C797S (nM), 100 μM ATP.
The mark [7] stands for this setting: Km ATP, read-out: IC50 Del19/T790M/C797S (nM) Km ATP.
Where [8] appears, read: IC50 Del19/C797S (nM), 100 μM ATP.
[9] abbreviates: Km ATP, read-out: IC50 Del19/C797S (nM) Km ATP.
The mark [10] stands for this setting: Km ATP, read-out: IC50 WT (nM) Km ATP.
[11] abbreviates: IC50 L858R/C797S (nM), 100 μM ATP.
The mark [12] stands for this setting: Km ATP, read-out: IC50 L858R/C797S (nM) Km ATP.
The mark [13] stands for this setting: IC50 L858R/T790M/C797S (nM), 100 μM ATP.
Where [14] appears, read: Km ATP, read-out: IC50 L858R/T790M/C797S (nM) Km ATP.
[15] abbreviates: Km ATP, read-out: IC50 Del19/T790M/C797S (nM), Km ATP.
[16] abbreviates: Km ATP, read-out: IC50 Del19/C797S (nM), Km ATP.
Setting [17] is: Km ATP, read-out: IC50 WT (nM), Km ATP.
Setting [18] is: Km ATP, read-out: IC50 L858R/C797S (nM), Km ATP.
The mark [19] stands for this setting: Km ATP, read-out: IC50 L858R/T790M/C797S (nM), Km ATP.

SMILES strings stand for the structures. Where two headings read alike, the source gives them in different places. Bounds are passed on as bounds.

Chain of EGFR Del19/C797S (P00533 with tags, fused parts or gaps DEL746-750/C797S): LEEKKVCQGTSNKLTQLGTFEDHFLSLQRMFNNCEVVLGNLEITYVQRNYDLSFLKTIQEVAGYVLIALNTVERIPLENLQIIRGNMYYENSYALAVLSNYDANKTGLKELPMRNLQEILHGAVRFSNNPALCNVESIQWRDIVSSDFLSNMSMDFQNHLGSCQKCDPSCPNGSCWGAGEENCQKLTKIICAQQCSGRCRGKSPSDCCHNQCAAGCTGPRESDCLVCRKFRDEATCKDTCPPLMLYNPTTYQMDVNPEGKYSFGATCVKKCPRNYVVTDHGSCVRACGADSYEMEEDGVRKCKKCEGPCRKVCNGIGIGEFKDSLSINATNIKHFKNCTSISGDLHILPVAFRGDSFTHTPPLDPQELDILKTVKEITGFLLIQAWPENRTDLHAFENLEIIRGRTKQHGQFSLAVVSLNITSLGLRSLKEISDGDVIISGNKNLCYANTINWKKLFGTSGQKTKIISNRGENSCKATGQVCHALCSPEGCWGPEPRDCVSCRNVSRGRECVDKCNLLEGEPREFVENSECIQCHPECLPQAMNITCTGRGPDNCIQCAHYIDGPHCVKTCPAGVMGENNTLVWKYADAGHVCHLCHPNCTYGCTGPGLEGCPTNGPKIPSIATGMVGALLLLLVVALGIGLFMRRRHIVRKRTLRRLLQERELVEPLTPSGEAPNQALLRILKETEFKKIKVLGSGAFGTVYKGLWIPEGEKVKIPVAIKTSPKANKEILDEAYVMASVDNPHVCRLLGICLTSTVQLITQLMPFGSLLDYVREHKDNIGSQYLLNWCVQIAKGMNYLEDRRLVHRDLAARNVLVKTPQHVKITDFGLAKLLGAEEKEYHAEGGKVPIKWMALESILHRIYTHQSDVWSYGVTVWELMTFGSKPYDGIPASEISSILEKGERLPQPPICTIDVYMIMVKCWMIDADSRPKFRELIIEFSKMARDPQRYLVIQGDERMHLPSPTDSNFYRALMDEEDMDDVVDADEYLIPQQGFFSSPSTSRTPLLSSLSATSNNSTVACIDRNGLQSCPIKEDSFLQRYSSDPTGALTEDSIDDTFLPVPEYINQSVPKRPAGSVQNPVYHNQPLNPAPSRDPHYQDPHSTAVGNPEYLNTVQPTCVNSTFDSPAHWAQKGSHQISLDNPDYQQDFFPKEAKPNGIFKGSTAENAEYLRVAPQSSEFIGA
Chain of EGFR L858R/C797S (P00533 25-1210 C797S/L858R): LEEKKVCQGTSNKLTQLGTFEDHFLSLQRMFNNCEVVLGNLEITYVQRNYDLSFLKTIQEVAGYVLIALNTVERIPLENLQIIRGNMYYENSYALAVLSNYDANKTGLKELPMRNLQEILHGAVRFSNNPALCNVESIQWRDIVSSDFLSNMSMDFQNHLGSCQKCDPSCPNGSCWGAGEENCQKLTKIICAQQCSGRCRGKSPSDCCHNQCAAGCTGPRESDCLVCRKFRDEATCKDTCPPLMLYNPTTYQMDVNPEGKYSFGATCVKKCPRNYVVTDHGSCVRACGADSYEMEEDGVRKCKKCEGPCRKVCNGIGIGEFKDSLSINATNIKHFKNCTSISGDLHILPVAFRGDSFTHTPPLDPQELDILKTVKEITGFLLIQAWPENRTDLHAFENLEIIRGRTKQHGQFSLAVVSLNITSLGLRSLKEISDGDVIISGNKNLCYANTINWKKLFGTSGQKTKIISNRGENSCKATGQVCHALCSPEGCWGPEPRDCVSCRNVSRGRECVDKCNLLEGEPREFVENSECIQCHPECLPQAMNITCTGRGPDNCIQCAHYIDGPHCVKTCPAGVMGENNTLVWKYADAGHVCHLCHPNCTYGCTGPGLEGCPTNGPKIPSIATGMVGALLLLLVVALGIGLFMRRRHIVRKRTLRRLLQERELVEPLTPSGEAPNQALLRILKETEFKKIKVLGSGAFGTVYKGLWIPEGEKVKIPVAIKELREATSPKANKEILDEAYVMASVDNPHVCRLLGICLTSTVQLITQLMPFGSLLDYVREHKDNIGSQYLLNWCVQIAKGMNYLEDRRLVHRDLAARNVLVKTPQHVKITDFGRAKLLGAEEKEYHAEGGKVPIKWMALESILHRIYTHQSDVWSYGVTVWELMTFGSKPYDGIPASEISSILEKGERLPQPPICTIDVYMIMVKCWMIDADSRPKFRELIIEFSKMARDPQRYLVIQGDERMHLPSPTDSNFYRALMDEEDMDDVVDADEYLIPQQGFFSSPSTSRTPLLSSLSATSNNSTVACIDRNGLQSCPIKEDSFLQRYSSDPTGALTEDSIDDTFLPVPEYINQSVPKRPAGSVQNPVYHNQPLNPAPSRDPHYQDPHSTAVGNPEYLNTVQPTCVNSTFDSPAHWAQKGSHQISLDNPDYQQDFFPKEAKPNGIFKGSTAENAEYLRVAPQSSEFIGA
Chain of EGFR wildtype (WT) (P00533 25-1210): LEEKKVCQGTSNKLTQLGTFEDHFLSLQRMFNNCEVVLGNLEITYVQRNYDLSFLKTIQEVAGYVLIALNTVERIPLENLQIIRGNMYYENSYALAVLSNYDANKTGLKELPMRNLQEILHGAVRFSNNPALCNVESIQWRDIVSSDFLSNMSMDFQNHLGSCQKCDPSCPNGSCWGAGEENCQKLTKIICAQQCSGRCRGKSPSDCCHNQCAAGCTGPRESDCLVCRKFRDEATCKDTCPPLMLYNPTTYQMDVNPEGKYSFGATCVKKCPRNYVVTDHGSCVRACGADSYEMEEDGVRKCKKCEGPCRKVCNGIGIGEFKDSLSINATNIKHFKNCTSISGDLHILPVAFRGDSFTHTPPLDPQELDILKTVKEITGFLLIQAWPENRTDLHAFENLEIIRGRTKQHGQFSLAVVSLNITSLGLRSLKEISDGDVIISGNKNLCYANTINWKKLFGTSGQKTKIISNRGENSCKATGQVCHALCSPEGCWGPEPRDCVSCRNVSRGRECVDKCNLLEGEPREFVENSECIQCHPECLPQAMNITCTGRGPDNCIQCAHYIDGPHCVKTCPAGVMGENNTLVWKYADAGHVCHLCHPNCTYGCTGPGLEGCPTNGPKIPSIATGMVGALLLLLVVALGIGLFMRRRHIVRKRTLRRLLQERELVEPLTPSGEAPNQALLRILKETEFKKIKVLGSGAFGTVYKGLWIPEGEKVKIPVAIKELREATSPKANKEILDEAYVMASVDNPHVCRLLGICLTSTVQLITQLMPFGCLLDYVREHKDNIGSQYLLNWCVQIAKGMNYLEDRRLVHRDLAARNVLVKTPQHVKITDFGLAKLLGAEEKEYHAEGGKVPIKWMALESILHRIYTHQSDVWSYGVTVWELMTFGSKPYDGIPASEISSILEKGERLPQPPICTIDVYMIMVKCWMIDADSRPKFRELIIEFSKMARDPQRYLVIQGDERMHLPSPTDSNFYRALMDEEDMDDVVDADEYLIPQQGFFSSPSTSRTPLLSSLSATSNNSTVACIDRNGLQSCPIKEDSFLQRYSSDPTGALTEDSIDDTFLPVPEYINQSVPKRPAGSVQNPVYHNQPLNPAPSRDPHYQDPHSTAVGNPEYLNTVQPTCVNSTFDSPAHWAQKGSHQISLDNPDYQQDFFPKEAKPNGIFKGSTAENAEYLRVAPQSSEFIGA

On to `Cn1ccc(C#Cc2cnc(Nc3ccnc(-c4cnn(S(=O)(=O)C5CC5)c4)n3)cc2N2CCC(C)(CO)CC2)n1` [Example 107, (1-(2-((2-(1-(Cyclopropylsulfonyl)-1H-pyrazol-4-yl)pyrimidin-4-yl)amino)-5-((1-methyl-1H-pyrazol-3-yl)ethynyl)pyridin-4-yl)-4-methylpiperidin-4-yl)methanol], for which the IC50 in assay [1] (setting [6]) was 1.2 nM; in assay [1] (setting [7]), 1.2 nM; in assay [2] (setting [8]) it was 4.6 nM; in assay [2] (setting [9]) it was 3.2 nM; in assay [3] (IC50 WT (nM), 100 μM ATP), more than 10000 nM; in assay [3] (setting [10]), 24.1 nM. Moreover, the IC50 was 85.6 nM in assay [4] (setting [11]), 1.9 nM in assay [4] (setting [12]), 1.3 nM in assay [5] (setting [13]) and 0.6 nM in assay [5] (setting [14]).

`CN(C)C[C@H]1CC[C@H](COc2cc(Nc3ccnc(-c4cnn(S(=O)(=O)C5CC5)c4)n3)ncc2C#Cc2cnn(C3CC3)c2)CC1` [Example 60, N-(5-((1-Cyclopropyl-1H-pyrazol-4-yl)ethynyl)-4-(((1r,4r)-4-((dimethylamino)methyl)cyclohexyl)methoxy)pyridin-2-yl)-2-(1-(cyclopropylsulfonyl)-1H-pyrazol-4-yl)pyrimidin-4-amine]: the IC50 worked out at 0.5 nM in assay [1] (setting [7]); 0.4 nM in assay [2] (setting [9]); 8.8 nM in assay [3] (setting [10]); 2.6 nM in assay [4] (setting [12]); 0.1 nM in assay [5] (setting [14]).

`CC1(CO)CCN(c2cc(Nc3ccnc(-c4cnn(S(=O)(=O)C5CC5)c4)n3)ncc2C#Cc2cnn(CC(F)(F)F)c2)CC1` [Example 348, (1-(2-((2-(1-(Cyclopropylsulfonyl)-1H-pyrazol-4-yl)pyrimidin-4-yl)amino)-5-((1-(2,2,2-trifluoroethyl)-1H-pyrazol-4-yl)ethynyl)pyridin-4-yl)-4-methylpiperidin-4-yl)methanol]: the IC50 was determined as 2.1 nM in assay [1] (setting [6]); 4.2 nM in assay [1] (setting [15]); 4.9 nM in assay [2] (setting [8]); 4.7 nM in assay [2] (setting [16]); 651 nM in assay [3] (IC50 WT (nM), 100 μM ATP); 14.1 nM in assay [3] (setting [17]). Also, the IC50 in assay [4] (setting [11]) is 14.3 nM; in assay [4] (setting [18]) it was 1.1 nM; in assay [5] (setting [13]) it was 0.8 nM; in assay [5] (setting [19]) it was 1.4 nM.

As to `CC1OCCC1C#Cc1cnc(Nc2ccnc(-c3cnn(S(=O)(=O)C4CC4)c3)n2)cc1N1CCC(C)(O)CC1` (centres unmarked) [Example 432, 1-(2-((2-(1-(Cyclopropylsulfonyl)-1H-pyrazol-4-yl)pyrimidin-4-yl)amino)-5-((2-methyltetrahydrofuran-3-yl)ethynyl)pyridin-4-yl)-4-methylpiperidin-4-ol], the IC50 in assay [1] (setting [6]) was 0.6 nM; in assay [1] (setting [15]), 0.4 nM; in assay [2] (setting [8]), 5.2 nM; in assay [2] (setting [16]), 3.1 nM; in assay [3] (IC50 WT (nM), 100 μM ATP) it was more than 10000 nM; in assay [3] (setting [17]), 11.4 nM. Besides, the IC50 in assay [4] (setting [11]) was determined as 141 nM; in assay [4] (setting [18]), 5.3 nM; in assay [5] (setting [13]), 0.7 nM; in assay [5] (setting [19]), 0.3 nM.

Turning to `CC1(CO)CCN(c2cc(Nc3ccnc(-c4cnn(S(=O)(=O)C5CC5)c4)n3)ncc2C#Cc2cccc(C(=O)N3CCOCC3)n2)CC1` [Example 265, (6-((6-((2-(1-(Cyclopropylsulfonyl)-1H-pyrazol-4-yl)pyrimidin-4-yl)amino)-4-(4-(hydroxymethyl)-4-methylpiperidin-1-yl)pyridin-3-yl)ethynyl)pyridin-2-yl)(morpholino)methanone], the IC50 in assay [1] (ATP at Km, read-out: IC50 Del19/T790M/C797S (nM), Km ATP) was 0.8 nM; in assay [1] (setting [6]) it was 0.9 nM; in assay [2] (ATP at Km, read-out: IC50 Del19/C797S (nM), Km ATP) it was 0.8 nM; in assay [2] (setting [8]), 1.1 nM; in assay [3] (ATP at Km, read-out: IC50 WT (nM), Km ATP), 7.6 nM; in assay [3] (IC50 WT (nM), 100 μM ATP) it was 6520 nM. For the same compound, the IC50 in assay [4] (ATP at Km, read-out: IC50 L858R/C797S (nM), Km ATP) was 0.9 nM; in assay [4] (setting [11]) it was 9.1 nM; in assay [5] (ATP at Km, read-out: IC50 L858R/T790M/C797S (nM), Km ATP), 0.3 nM; in assay [5] (setting [13]), 0.8 nM.

As to `CN(C)Cc1ccc(CNc2cc(Nc3ccnc(-c4cnn(S(=O)(=O)C5CC5)c4)n3)ncc2C#Cc2cnn(C)c2)cc1` [Example 50, N^2-(2-(1-(Cyclopropylsulfonyl)-1H-pyrazol-4-yl)pyrimidin-4-yl)-N^4-(4-((dimethylamino)methyl)benzyl)-5-((1-methyl-1H-pyrazol-4-yl)ethynyl)pyridine-2,4-diamine], the IC50 in assay [1] (setting [7]) stood at 0.9 nM; in assay [2] (setting [9]), 128 nM; in assay [3] (setting [10]) it was 362 nM; in assay [4] (setting [12]), 130 nM; in assay [5] (setting [14]) it was 4.5 nM.
